This is an account of results in ChEMBL document CHEMBL1201862, “PubChem BioAssay data set” (2004).

Assay [1] concerns the target T1, Sentrin-specific protease 8 (Homo sapiens, UniProt Q96LD8).
T1 sequence (Q96LD8 whole entry): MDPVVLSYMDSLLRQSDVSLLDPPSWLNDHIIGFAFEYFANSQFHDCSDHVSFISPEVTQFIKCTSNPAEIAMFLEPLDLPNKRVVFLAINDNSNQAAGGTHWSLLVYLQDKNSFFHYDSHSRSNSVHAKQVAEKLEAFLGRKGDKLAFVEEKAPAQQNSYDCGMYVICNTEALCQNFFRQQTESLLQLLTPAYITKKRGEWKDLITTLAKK
The assay is classed as functional.

For assay [2], the target named is T1, Sentrin-specific protease 8. The class given is functional. The source holds these as a separate data set.
Assay [3] addresses T2, Heat shock factor protein 1 (Mus musculus, UniProt P38532).
T2 sequence (P38532 whole entry): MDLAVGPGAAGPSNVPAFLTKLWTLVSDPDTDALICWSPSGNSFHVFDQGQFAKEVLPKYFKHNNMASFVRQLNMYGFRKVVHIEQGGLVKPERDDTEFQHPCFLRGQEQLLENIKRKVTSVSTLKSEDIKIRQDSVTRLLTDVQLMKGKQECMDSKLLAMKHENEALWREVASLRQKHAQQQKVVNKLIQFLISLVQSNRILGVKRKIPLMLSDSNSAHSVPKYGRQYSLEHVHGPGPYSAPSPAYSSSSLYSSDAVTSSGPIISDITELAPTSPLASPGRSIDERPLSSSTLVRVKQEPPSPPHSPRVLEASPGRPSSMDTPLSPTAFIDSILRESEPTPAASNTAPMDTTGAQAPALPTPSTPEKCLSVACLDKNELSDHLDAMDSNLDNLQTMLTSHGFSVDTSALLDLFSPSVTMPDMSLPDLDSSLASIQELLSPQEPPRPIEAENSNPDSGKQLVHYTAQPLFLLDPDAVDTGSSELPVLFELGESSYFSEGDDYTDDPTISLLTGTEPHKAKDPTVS
Kind of assay: HSF1 potentiators in luciferase reporter cells, confirmation, cell-based, NIH3T3, luminescence, dose retest (AID 435004).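 Further: stress induced by proteasome inhibitor MG132 added 30 min after compound; luciferase reporter driven by HSF1 response element in NIH3T3 cells; actives raise luminescence as potentiators of the MG132 stress response.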 The class given is functional. In general terms: In a reporter assay the amount or activity of a reporter protein is the signal.

The target of assay [4] is T3, Streptokinase A (Streptococcus pyogenes serotype M1, UniProt P10520).
T3 sequence (P10520 whole entry): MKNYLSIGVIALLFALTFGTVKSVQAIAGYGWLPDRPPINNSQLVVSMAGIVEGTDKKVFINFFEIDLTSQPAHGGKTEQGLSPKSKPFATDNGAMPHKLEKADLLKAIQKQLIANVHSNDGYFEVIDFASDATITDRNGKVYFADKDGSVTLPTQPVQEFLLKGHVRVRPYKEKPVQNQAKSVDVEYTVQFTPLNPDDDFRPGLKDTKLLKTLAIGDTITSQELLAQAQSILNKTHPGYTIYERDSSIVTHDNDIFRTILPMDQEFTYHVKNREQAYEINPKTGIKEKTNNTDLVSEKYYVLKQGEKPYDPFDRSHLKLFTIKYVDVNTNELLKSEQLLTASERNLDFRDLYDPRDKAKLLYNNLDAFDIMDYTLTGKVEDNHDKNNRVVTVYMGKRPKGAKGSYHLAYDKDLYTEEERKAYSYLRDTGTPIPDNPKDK
Briefly: S. pyogenes streptokinase expression inhibitors, potency, dose response, plasminogen activation absorbance, OD405 (AID 1914).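 Further: secreted streptokinase activity via plasminogen activation per viability signal from cell pellet.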 The class given is functional, Streptococcus pyogenes M1 GAS.

A short description of assay [5]: Luminescence Cell-Based Dose Response HTS to Identify Inhibitors of 5'UTR Stem-Loop Driven Prion Protein mRNA Translation in H4 Neuroglioblastoma Cells. [Related pubchem assays: 1827 (Project Summary), 1813 (Primary HTS)]. The class given is functional.
In assay [6] the test system is Vero. Kind of assay: Vero cell cytotoxicity, cytotoxicity control for flavivirus capping enzyme inhibitors (AID 588742). The class given is functional. Particulars: Chlorocebus sabaeus.
The subject of assay [7] is Streptococcus sp. 'group A'. Briefly: growth inhibition of control SK(-) GAS strain, dose response, counter-screen for streptokinase expression inhibitor project, luminescence, kanamycin, BacTiterGlo, confirmation (AID 1900). The class given is functional, organism-based.
The subject of assay [8] is Streptococcus. Kind of assay: Group A Streptococcus viability loss, dose response, counter-screen for streptokinase expression inhibitor project, luminescence, BacTiterGlo (AID 1915).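 Further: potency for reduction of bacterial viability or growth.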 The assay is classed as functional, organism-based. A general note: Counterscreens check selectivity or assay interference.
A short description of assay [9]: inhibitors of firefly luciferase expression or activity, dose response, H4 neuroglioma cells, luminescence (AID 1990). The assay is classed as functional, cell-based.
Assay [10] deals with Vero. Kind of assay: cells. The assay is classed as functional. Conditions: Chlorocebus sabaeus.
In assay [11] the target is T4, Cytochrome P450 1A2 (Homo sapiens, UniProt P05177).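 Further: PubChem cytochrome P450 panel assay, CYP1A2 panel member.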
T4 sequence (P05177 whole entry): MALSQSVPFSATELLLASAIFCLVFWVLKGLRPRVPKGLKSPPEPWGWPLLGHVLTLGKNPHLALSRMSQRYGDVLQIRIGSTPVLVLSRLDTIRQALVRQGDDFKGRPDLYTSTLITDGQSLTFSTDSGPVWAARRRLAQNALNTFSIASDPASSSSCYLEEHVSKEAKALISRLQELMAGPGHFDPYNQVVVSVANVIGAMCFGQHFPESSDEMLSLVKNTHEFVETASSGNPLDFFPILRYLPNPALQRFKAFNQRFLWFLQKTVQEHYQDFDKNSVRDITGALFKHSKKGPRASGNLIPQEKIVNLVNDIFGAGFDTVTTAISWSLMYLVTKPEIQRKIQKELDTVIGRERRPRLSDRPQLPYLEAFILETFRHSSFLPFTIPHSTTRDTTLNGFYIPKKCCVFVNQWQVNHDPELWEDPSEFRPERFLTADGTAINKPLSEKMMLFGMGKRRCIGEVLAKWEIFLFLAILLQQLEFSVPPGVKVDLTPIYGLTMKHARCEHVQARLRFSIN

Assay [12] addresses T5, Low molecular weight phosphotyrosine protein phosphatase (Homo sapiens, UniProt P24666).
T5 sequence (P24666 whole entry): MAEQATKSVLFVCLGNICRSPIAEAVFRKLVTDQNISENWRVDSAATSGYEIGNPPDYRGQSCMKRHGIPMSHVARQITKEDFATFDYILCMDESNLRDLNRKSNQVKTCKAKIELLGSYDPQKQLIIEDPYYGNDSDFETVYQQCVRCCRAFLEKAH
The class given is functional. Conditions: read-out: IC50_Mean.

Assay [13] concerns the target T6, Carboxy-terminal domain RNA polymerase II polypeptide A small phosphatase 1 (Homo sapiens, UniProt Q9GZU7).
T6 sequence (Q9GZU7 whole entry): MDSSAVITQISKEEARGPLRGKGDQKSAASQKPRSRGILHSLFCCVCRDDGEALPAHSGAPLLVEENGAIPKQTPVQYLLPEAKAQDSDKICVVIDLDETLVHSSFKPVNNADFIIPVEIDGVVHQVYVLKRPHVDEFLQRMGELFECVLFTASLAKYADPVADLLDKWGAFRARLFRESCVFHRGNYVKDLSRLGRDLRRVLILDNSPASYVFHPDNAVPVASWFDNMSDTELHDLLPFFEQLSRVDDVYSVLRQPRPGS
Briefly: inhibitors of CTDSP1, concentration-response testing, biochemical assay, absorbance-based, actives from ultra-high-throughput screening (AID 540297). The class given is functional.

Assay [14] has as its target T7, Histone-lysine N-methyltransferase NSD2 (Homo sapiens, UniProt O96028).
T7 sequence (O96028 whole entry): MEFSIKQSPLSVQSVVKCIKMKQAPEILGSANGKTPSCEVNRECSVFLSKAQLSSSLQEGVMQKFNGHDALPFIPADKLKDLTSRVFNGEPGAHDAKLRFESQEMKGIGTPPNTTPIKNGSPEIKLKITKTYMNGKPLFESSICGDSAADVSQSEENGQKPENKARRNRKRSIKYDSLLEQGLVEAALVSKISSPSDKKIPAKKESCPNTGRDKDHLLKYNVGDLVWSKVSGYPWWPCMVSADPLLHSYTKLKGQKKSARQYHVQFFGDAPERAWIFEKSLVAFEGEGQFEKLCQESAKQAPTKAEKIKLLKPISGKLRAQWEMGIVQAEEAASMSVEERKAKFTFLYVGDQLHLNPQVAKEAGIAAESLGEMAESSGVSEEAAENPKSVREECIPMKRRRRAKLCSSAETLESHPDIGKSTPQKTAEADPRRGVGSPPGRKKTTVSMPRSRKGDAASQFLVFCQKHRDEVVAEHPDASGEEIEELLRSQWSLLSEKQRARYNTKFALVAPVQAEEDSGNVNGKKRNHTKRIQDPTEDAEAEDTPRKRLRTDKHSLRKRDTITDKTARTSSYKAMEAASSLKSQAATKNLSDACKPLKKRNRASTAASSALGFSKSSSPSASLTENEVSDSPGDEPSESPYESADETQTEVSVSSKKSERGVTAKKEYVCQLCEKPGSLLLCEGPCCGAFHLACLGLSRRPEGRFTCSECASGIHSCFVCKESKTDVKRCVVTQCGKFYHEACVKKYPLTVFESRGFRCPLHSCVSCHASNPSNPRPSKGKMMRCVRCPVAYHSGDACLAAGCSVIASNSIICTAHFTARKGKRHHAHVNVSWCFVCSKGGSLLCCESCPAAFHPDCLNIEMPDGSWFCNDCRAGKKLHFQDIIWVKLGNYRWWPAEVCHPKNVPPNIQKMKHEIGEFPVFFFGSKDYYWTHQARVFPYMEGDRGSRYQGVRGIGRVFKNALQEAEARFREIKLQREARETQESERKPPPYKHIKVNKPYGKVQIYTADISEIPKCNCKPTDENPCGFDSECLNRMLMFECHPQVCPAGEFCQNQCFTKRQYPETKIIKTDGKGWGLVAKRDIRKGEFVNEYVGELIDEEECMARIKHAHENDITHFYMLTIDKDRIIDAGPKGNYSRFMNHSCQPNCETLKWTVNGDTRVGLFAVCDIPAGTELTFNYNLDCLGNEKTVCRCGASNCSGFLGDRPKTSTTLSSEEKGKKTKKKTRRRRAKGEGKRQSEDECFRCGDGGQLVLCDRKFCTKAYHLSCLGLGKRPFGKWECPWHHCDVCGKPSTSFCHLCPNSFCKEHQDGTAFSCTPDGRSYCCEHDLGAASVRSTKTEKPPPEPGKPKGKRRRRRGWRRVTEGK
The assay is classed as biochemical.

The target in assay [15] is Genome polyprotein (dengue virus type 2, UniProt P29990). Briefly: Dengue-2 NS5 methyltransferase inhibitors, primary screen, biochemical, confirmation dose response (AID 588689). The assay is classed as functional.
Assay [16] addresses T8, High affinity choline transporter 1 (Homo sapiens, UniProt Q9GZV3).
T8 sequence (Q9GZV3 whole entry): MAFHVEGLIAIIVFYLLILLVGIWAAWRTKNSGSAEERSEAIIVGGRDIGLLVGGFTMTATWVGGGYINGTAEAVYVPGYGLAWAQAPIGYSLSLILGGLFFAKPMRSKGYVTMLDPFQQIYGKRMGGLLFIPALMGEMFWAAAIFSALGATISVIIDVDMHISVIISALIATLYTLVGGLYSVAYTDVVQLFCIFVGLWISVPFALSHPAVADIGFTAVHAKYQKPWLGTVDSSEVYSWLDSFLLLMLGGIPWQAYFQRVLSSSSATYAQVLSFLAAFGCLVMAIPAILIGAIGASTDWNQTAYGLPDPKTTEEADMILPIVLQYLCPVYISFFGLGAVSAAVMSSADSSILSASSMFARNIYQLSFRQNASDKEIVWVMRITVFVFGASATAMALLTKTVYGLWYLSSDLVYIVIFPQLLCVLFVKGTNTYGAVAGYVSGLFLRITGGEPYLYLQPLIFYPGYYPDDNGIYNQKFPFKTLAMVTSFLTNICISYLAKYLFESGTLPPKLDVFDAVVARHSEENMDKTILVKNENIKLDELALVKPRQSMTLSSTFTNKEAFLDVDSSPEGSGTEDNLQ
Kind of assay: CHT inhibitors, dose response, cell-based, 5-point CRC, membrane potential dye (AID 504840). The class given is functional.

Assay [17] concerns the target T9, Fatty acid synthase (Homo sapiens, UniProt P49327). Briefly: FAS thioesterase domain inhibitors, dose response, biochemical, kinetic fluorescence intensity (AID 624326).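 Further: rate of fluorescence rise from hydrolysis of a fluorogenic O-methyl fluorescein ester substrate.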 The assay is classed as functional.
The target of assay [18] is T9, Fatty acid synthase. Briefly: FAS thioesterase domain inhibitors, dose response, biochemical, endpoint fluorescence intensity, uHTS hits (AID 624327).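 Further: fluorescence from hydrolysis of an O-methyl fluorescein acyl ester substrate by the enzyme.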 The class given is functional.

Active and inactive are the calls of the source.
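Wherever IC50 Mean is given: Dose-response confirmation assay measuring inhibition of LMPTP enzyme activity by fluorescence intensity read-out.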

T9 sequence (P49327 whole entry, the tested form may be a part): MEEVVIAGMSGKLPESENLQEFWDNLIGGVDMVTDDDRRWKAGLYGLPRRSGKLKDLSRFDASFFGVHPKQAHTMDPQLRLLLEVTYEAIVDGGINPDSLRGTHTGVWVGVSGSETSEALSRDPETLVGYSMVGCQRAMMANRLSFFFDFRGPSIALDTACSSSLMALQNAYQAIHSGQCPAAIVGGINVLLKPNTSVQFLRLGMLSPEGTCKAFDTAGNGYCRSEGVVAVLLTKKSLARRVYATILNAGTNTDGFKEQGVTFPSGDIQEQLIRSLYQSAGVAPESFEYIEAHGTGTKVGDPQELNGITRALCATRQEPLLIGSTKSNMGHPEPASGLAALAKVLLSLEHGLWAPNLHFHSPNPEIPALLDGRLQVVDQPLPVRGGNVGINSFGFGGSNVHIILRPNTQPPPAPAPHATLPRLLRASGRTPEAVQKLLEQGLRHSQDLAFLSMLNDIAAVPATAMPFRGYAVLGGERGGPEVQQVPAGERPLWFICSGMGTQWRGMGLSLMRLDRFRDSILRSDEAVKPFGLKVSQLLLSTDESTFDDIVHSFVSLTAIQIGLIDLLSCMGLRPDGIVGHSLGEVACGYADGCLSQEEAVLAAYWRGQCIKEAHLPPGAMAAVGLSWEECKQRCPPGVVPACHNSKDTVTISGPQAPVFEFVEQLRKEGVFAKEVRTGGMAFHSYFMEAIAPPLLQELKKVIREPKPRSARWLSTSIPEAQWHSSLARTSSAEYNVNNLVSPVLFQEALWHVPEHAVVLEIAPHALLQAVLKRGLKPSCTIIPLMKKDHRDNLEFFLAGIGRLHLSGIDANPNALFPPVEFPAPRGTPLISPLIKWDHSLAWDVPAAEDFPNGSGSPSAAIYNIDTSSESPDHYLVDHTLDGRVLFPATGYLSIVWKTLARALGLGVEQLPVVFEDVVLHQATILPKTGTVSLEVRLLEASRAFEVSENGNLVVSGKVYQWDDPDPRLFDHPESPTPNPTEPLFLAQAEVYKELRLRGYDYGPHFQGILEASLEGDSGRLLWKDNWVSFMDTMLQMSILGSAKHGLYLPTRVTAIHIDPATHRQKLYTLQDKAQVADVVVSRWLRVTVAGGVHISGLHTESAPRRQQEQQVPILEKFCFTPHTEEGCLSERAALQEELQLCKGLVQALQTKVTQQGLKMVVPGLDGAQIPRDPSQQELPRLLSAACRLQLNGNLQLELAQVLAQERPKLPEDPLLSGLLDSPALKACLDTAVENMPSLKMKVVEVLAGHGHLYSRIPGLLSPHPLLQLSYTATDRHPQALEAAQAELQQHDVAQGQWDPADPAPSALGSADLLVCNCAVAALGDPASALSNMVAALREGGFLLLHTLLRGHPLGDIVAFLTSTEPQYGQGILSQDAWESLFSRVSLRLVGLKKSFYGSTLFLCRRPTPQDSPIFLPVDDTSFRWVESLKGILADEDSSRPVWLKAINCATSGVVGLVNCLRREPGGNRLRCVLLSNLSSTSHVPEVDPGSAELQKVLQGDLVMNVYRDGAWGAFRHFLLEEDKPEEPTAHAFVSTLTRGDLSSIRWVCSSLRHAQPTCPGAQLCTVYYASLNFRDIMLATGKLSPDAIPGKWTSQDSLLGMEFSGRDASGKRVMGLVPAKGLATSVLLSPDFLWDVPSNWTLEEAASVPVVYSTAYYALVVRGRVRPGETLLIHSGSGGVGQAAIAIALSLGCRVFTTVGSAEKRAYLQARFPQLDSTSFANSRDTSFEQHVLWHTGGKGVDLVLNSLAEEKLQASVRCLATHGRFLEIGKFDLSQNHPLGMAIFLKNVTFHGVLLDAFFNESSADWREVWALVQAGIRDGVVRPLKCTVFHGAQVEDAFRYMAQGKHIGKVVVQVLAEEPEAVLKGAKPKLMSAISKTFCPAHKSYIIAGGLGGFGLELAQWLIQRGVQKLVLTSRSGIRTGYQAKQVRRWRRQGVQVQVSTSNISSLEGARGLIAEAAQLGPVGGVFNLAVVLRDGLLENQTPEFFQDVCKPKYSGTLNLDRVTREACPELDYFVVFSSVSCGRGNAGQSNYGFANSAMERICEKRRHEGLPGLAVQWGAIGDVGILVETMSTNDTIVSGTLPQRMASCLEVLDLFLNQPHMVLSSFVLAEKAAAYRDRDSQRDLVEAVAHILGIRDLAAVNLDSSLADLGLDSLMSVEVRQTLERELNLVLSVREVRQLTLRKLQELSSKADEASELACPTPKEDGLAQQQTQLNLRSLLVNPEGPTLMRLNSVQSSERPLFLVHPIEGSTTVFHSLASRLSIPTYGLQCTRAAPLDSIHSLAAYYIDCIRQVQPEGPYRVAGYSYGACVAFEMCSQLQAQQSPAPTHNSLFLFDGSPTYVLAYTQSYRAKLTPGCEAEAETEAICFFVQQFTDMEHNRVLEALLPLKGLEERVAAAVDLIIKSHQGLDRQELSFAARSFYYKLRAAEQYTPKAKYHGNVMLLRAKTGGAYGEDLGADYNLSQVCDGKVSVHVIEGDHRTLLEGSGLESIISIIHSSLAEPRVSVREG
Genome polyprotein, sequence (P29990 2492-3391 limits assumed): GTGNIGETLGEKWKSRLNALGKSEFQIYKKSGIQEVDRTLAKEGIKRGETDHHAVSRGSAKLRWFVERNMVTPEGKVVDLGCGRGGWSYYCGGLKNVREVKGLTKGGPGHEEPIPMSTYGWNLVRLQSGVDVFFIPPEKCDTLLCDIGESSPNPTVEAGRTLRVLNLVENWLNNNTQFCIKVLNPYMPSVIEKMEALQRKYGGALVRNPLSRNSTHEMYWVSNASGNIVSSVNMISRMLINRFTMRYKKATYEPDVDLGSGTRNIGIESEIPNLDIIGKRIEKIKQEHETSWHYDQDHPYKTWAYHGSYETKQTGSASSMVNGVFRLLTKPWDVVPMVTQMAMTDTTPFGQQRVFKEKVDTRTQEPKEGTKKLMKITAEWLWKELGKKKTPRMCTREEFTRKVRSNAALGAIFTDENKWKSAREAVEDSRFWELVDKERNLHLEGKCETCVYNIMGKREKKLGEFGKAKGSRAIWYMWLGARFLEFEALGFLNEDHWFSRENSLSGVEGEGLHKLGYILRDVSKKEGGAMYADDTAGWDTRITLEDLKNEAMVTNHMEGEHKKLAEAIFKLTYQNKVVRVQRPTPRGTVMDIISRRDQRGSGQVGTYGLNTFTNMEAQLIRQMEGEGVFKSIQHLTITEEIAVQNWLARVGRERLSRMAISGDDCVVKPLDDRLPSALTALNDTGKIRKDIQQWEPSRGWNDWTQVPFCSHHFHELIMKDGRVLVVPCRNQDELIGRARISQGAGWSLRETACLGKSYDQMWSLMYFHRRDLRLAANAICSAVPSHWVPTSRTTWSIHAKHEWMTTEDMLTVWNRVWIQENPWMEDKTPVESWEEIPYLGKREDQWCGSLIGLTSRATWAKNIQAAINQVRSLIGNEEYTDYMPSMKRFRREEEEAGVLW

What is called EC50 is the midpoint of the concentration-response curve. As to `Cc1[nH][nH]c(=O)c1C(c1c(C)[nH][nH]c1=O)c1cn(Cc2ccc(Cl)c(Cl)c2)c2ccccc12`, the IC50 in [1] was 5.81 µM (active); in assay [2] it was 6.19 µM (active). The EC50 in assay [3] was 27 µM (active); in [4], 10.1 µM (active).
For orientation: CC50 means the concentration at which the toxic effect on the cells reaches its halfway point. For the molecule `Cc1n[nH]c(O)c1C(c1c(C)n[nH]c1O)c1cn(Cc2ccc(Cl)c(Cl)c2)c2ccccc12`, the EC50 was 0.26 µM (active) in [5], 4.35 µM (active) in assay [7], 77.9 µM (active) in assay [8] and 13.6 µM (active) in [9]. The CC50 in [6] was 5.47 µM (active); in [10] it was 10.1 µM (active).
Broadly, the AC50 is the concentration at which the activity in the assay is half-maximal. In the case of `Cc1sc2c(c1C)C(c1ccc(C(C)(C)C)cc1)=NCC(=O)N2CC(=O)Nc1nccs1`, the half-maximal cytotoxic concentration (CC50) in [6] was > 40 µM (active). Also, in [11], the AC50 is 22.4 µM (inconclusive).
`O=C(O)c1ccc(Nc2nc(-c3ccc([N+](=O)[O-])cc3)nc3ccccc23)cc1`: the IC50 in [12] is 10.9 µM (active); in [13], 4.57 µM (active).
As to `Cc1ccc(S(=O)(=O)/N=C2\C=C(NS(=O)(=O)c3ccccc3)C(=O)c3ccccc32)cc1`, in [6], the CC50 is > 40 µM (active). In assay [14], the AC50 is 2.18 µM (active). Also, the IC50 in assay [15] is 35.8 µM (active).
For the molecule `NC(=S)N=Nc1c(O)cc(O)c2nc(O)ccc12`, the CC50 in assay [6] is > 40 µM (active). The IC50 in [15] is 20 µM (active).
As for `Cc1cc(=O)n(-c2ccc3ccccc3n2)[nH]1`, the IC50 in [1] was 24.2 µM (active); in assay [2], 30.4 µM (active).
Consider `C/C(=N\NS(=O)(=O)c1ccc(Cl)c([N+](=O)[O-])c1)c1cc2ccccc2o1`, for which the IC50 is 4.37 µM (active) in assay [16], 80 µM (inactive) in [12], 15.6 µM (active) in assay [17] and 12.3 µM (active) in assay [18].
